The IC50 is the midpoint of a concentration-inhibition curve. Usually MBC stands for the lowest tested concentration that kills the bacteria rather than only halting them.

This note sets out measurements from PMC12888861, “Antibacterial activity of enmetazobactam against Acinetobacter spp.: a molecular dissection of mechanism of action and resistance determinants” (Antimicrobial Agents and Chemotherapy, 2025).

In test [1] the target is T1, OXA-23 (Acinetobacter baumannii, UniProt Q9L4P2).
T1 construct: GST (N); made in house; host or cells: Escherichia coli BL21
Kind of test: Jump-dilution dissociation assay (koff, t1/2) with OXA-23. Type of test: biochemical. As to conditions: jump dilution, accurate koff not determinable. The procedure: (§1) The Michaelis-Menten constant (Km) was determined by fitting the data to the Michaelis-Menten equation, following established protocols ([38]). The kcat (hydrolysis rate constant of the β-lactamase) was obtained by linearization of the kinetic data ([39]). To assess the possible inhibitory capacity of enmetazobactam against the CHDLs of A. baumannii, specific OXA-23 inhibition kinetics assays were performed in a Nanoquant Infinite spectrophotometer (Tecan). […] Also, the dissociation constant (koff), which represents the rate at which the enzyme-inhibitor complex dissociates (i.e., the proportion of the enzyme-inhibitor complex that dissociates per unit of time), was determined through a jump-dilution assay that monitored OXA-23 activity recovery as the enzyme-inhibitor complex dissociated. OXA-23 (1 µM) was preincubated for 30 min at 37°C with excess of inhibitors (50× IC₅₀) to ensure full acyl-enzyme complex formation. Subsequently, the mixture was diluted 1:5,000 to allow gradual complex dissociation. […] Enzymatic activity, reflecting the progressive dissociation of the acyl-enzyme complex, was monitored spectrophotometrically at 490 nm for 8 h. The resulting progress curves were fitted using GraphPad Prism (GraphPad Software, MA, USA) to equation 1 to estimate koff, where V0 is the initial, inhibited enzyme velocity; Vs is the steady-state uninhibited enzyme velocity, and t is time.
(1) P=Vs×t+(V0−Vs)×[1−exp^(−koff × t)]/koff

Test [2] concerns the target T1, OXA-23. Kind of test: OXA-23 inhibition assay (nitrocefin hydrolysis IC50). The class given is biochemical. The procedure:
as §1

Test [3] relates to Acinetobacter spp. clinical isolates. Kind of test: MBC testing, nine clinical isolates. The class given is cell-based. Conditions: for MBC relative to MIC: nine clinical isolates, most of the isolates. The procedure:
In order to determine the bactericidal activity of enmetazobactam, MBC testing was carried out by subculturing 100 μL aliquots from wells containing antimicrobial concentrations equal to or greater than the MIC of enmetazobactam onto Mueller-Hinton agar plates. […] The MBCs were evaluated for a total of nine clinical isolates: (i) three CRAB, (ii) three carbapenem-susceptible A. baumannii, and (iii) three A. non-baumannii isolates. The plates were incubated at 37°C for 24 h, and viable colonies were counted.

The mark [4] stands for this setting: Acinetobacter, isolate NO-Ab84, A. bereziniae.
Setting [5] is: Acinetobacter, isolate NO-Ab88, A. dijkshoorniae.
The mark [6] stands for this setting: isolate Ab1, A. baumannii ST 164, ADC-6, OXA-91, non-CHDLs-producing.
The mark [7] stands for this setting: isolate Ab4, A. baumannii ST 2, ADC-30, OXA-66, ISAba1-OXA-23.
The mark [8] stands for this setting: isolate Ab6, A. baumannii ST 2, ADC-30, OXA-66, ISAba1-OXA-23, TEM-12.
Setting [9] is: isolate Ab9, A. baumannii ST 2, ADC-30, OXA-66, OXA-23, TEM-12.
Where [10] appears, read: isolate Ab11, A. baumannii ST 239, ADC-2, OXA-51, non-CHDLs-producing.
[11] abbreviates: isolate Ab34, A. baumannii ST 2182, ADC-2, OXA-130, non-CHDLs-producing.

Values after ≈ are worked out from the molar mass of the structure shown. Where two headings read alike, the source gives them in different places.

T1 sequence (Q9L4P2 18-273): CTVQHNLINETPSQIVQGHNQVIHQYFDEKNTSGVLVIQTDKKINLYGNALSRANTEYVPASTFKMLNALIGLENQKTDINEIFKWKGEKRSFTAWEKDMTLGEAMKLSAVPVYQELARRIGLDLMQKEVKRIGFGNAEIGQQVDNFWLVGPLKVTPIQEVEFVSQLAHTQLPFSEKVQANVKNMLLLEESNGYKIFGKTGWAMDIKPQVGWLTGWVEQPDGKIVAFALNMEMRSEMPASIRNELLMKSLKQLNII

Consider `C[n+]1ccn(C[C@@]2(C)[C@H](C(=O)[O-])N3C(=O)C[C@H]3S2(=O)=O)n1` [enmetazobactam], for which the “koff relative to that of durlobactam” value in test [1] is reported as > 1,000 fold. The IC50 in test [2] (OXA-23, nitrocefin hydrolysis, 10 min preincubation at room temperature, read-out: IC50) amounted to 32.4 µM. For the same compound, the MBC was 2 µg/mL (≈ 6.36 µM) in test [3] (setting [4]); 2 µg/mL (≈ 6.36 µM) in test [3] (setting [5]); 4 µg/mL (≈ 12.7 µM) in test [3] (setting [6]); 64 µg/mL (≈ 204 µM) in test [3] (setting [7]); 64 µg/mL (≈ 204 µM) in test [3] (setting [8]); 8 µg/mL (≈ 25.5 µM) in test [3] (setting [9]). The MBC in test [3] (setting [10]) was determined as 16 µg/mL (≈ 50.9 µM); in test [3] (setting [11]), 8 µg/mL (≈ 25.5 µM); in test [3] (isolate NO-Ab89, A. pittii) it was 2 µg/mL (≈ 6.36 µM). Also, the “MBC relative to MIC” value in test [3] is “the same or up to twofold higher”.
Consider `CC1(C)[C@H](C(=O)O)N2C(=O)C[C@H]2S1(=O)=O` [sulbactam], for which, in test [2], the midpoint of inhibition, the IC50, lay at 29.2 µM. The MBC in test [3] (setting [4]) is 1 µg/mL (≈ 4.29 µM); in test [3] (setting [5]), 0.5 µg/mL (≈ 2.14 µM); in test [3] (setting [6]), 1 µg/mL (≈ 4.29 µM); in test [3] (setting [7]) it was 16 µg/mL (≈ 68.6 µM); in test [3] (setting [8]) it was 16 µg/mL (≈ 68.6 µM); in test [3] (setting [9]), 4 µg/mL (≈ 17.1 µM). Besides, the MBC in test [3] (setting [10]) came to 2 µg/mL (≈ 8.57 µM); in test [3] (setting [11]) it was 0.5 µg/mL (≈ 2.14 µM); in test [3] (isolate NO-Ab89, A. pittii), 0.5 µg/mL (≈ 2.14 µM). In test [3], the “MBC relative to MIC” value is reported as “the same or up to twofold higher”.
